The values that follow come from patent US20150316548A1, “PROGRANULIN AS MARKER FOR AUTOIMMUNE DISORDERS” (UNIVERSITAET DES SAARLANDES, priority 2012, published 2015).

For data set [1], the system named is hyperphosphorylation of progranulin at Ser81 in lymphoblastoid cell lines (LCL). The data set can be described thus: Kinase inhibitors added to cultured lymphoblastoid cell lines (LCL), progranulin isoforms read by IEF and immunoblot. The format is cell-based, human. Particulars: for hyperphosphorylated progranulin isoform in IEF: LCL culture. Here is the method:
Lymphoblastoid cell lines (LCLs) were established by infection of PBMCs with EBV as described before.
(§1) Isoelectric focusing was performed as described before. In short, whole blood cell extracts or extracts of LCLs were washed and treated with lysis buffer (8 M urea, 0.1 M NaH2PO4, 0.01 M Tris HCl, 0.1% NP40). Following to this, isoelectric focusing was performed (pH 3-10, Invitrogen) according to the manufacturer's protocol (1 hour 100 V, 1 hour 200 V, and 30 minutes 500 V). After semi-dry blotting on PVDF membranes (450 mA, 24V, 1 hour), patient's plasma was used for immunodetection of progranulin from whole blood cell lysates and murine anti-FLAG antibody (Sigma) was used at a dilution of 1:2,000 for immunodetection of progranulin from LCL lysates. These LCLs had been previously transfected with FLAG-tagged progranulin in pRTS. The membrane was blocked in TST/milk buffer (10% milk in 10 mM Tris/HCl, pH 7.5, 150 mM NaCl, 0.1% [v/v] Tween 20) overnight, washed, and incubated for 1 hour with plasma in TST or murine anti-FLAG-antibody. After 3 washings in TST, the membranes were incubated for 1 hour at room temperature with PDX-labeled goat anti-human IgG Ab (Dianova) diluted 1:5,000 or PDX-labeled anti-mouse IgG Ab (Biorad) in TST, subsequently washed in TST followed by ECL development. To perform IEF on different cell fractions, PBMCs and granulocytes were isolated by density double gradient centrifugation (Histopaque-1077 and -1119, Sigma). Monocytes, B-cells and T-cells were sorted with CD14, CD19 and CD3. Mucosa cells were obtained by swab from the oral cavities of patients and controls.
Stable transfected lymphoblastoid cell lines were cultured at 2×10e6 cells/ml in the presence of selected inhibitory compounds as indicated to narrow down the number of candidate kinases responsible for hyperphosphorylation at Ser81. […] After 3 days, cells were removed and analyzed by isoelectric focusing (IEF) and immunoblot detection. After the identification of PKC as the responsible kinase for the phosphorylation of serine 81, the same procedure was repeated with other selected inhibitory compounds to identify the subclass of PKC. The selected inhibitory compounds for the identification of the PKC subunit were: Staurosporin at […], 15 nM and 30 nM. Bisindolylmaleimide I (BIM I) at 1 nM, 5 nM, 10 nM and 20 nM, Rottlerin at 5 μM, 10 μM, 40 μM and 100 μM and the PKCβ-inhibitor at a concentration of 5 nm specifically for PKCβ-II and at a concentration of 21 nm for PKCβ-I and PKCβ-II.
On the technique in general: A western blot detects proteins with antibodies after separation by electrophoresis.

For data set [2] the following is noted: in vivo; cited from earlier work.
For data set [3], the system named is hyperphosphorylated progranulin isoform. The data set can be described thus: Treatment of sera / cell lysates with alkaline phosphatase before IEF. It is filed as biochemical, human. Particulars: samples of progranulin-antibody positive patients. Here is the method:
Treatment of whole blood cell lysates or LCL lysates with alkaline phosphatase was conducted in principal as previously described. FastAP thermo sensitive alkaline phosphatase (Fermentas) was used. In short LCLs were washed 3 times with PBS. The lysis was performed in a buffer of 10 mM Tris HCl pH 8 for 1 h at 4° C. Following to this the supplied FastAP-Buffer (10×Fast AP-Buffer: 100 mM Tris-HCl, pH 8.0, 50 mM MgCl2, 1 M KCl, 0.2% Triton X-100 and 1 mg/ml BSA) was added to the cell lysate. For 0.1 mg/ml lysed protein extract, 10 units of FastAP were utilized. After 1 h at 37° C., the alkaline phosphatase reaction was stopped by the addition of 50 mM EDTA. Equal volumes of sample and loading buffer were mixed, followed by IEF and immuno-detection.

Data set [4] has as its system phosphatase for progranulin's phosphorylated Ser81 in LCLs. The data set can be described thus: Phosphatase inhibitors added to cultured LCLs, progranulin isoforms read by IEF. The format is cell-based, human.
Description: FIG. 14 a) to b): Identification of PP1 as the responsible phosphatase. a) Phosphatase inhibitors at specific concentrations or DMSO only as control were administrated for three days to cultured LCLs derived from a healthy donor and from a patient with hyperphosphorylated progranulin. Subsequently LCL lysates were subjected to IEF. Lanes (1) and (4) show the IEF of the LCL from a healthy control and a progranulin-antibody positive patient cultured without phosphatase inhibitors. […] The further lanes show the administration of following phosphatase inhibitors to LCL-lysates from healthy controls (top) and from progranulin-antibody positive patients (bottom): 1) DMSO, 2) of serine/threonine inhibitor cocktail 1, 3) of NIPP1 at 10 pM, 4) of okadaic acid at 10 nM, 5) of okadaic acid at 0.1 nM and of okadaic acid at 500 nM.
as §1
To identify the responsible phosphatase for progranulin's phosphorylated Ser81 a panel of different phosphatase inhibitors was administered at specific concentrations to the cultured LCLs, which had been obtained from progranulin-antibody positive patients and from healthy controls with the aim to inhibit particular groups of phosphatases. This panel consisted of serine/threonine phosphatase inhibitor cocktail, tyrosine phosphatase inhibitor, okadaic acid at 500 nM, 10 nM, 0.1 nM and NIPP1 at 10 pM. Following to this, IEFs of the lysates of these LCLs were performed to check for possible differences in the phosphorylation state.

Entries after “also recorded” stand apart in the source; their conditions may differ.

In the case of `O=c1oc2c(O)c(O)cc3c(=O)oc4c(O)c(O)cc1c4c23` [Ellagic Acid], the “electrical charge of the normal progranulin isoform in IEF” value in data set [1] (10 pM, LCL of progranulin-antibody positive patients and of healthy controls) was “slight shift of the band of the normal progranulin isoform towards an electronically less negatively charged isoform”; in data set [1] (50 μM, LCL of a healthy control), “change in the electrical charge of “normal” progranulin appeared as well”; in data set [1] (50 μM, LCL of a progranulin-antibody positive patient), “change in the electrical charge”. Further, the “hyperphosphorylated progranulin isoform in IEF” value in data set [1] (inhibitor at 50 μM) is “disappearance of the hyperphosphorylated progranulin isoform”.

For `CC(=O)c1c(O)c(C)c(O)c(Cc2c(O)c3c(c(C(=O)/C=C/c4ccccc4)c2O)OC(C)(C)C=C3)c1O` [Rottlerin], the “hyperphosphorylated progranulin isoform in IEF” value is given as “could not inhibit the phosphorylation of Ser81” in data set [1] (inhibitor at 5 μM); “could not inhibit the phosphorylation of Ser81” in data set [1] (inhibitor at 10 μM); “could not inhibit the phosphorylation of Ser81” in data set [1] (inhibitor at 40 μM); “could not inhibit the phosphorylation of Ser81” in data set [1] (inhibitor at 100 μM); “not possible to inhibit the responsible kinase” in data set [1] (inhibitor at different concentrations).

Regarding TNF-α, the half-life entry in data set [2] is “about 20 min”.

Take `CN(C)CCCn1cc(C2=C(c3c[nH]c4ccccc34)C(=O)NC2=O)c2ccccc21` [Bisindolylmaleimide I]: the “hyperphosphorylated progranulin isoform in IEF” value in data set [1] (inhibitor at 1 nM) is listed as “didn't inhibit the hyperphosphorylation”; in data set [1] (inhibitor at 5 nM) it was “didn't inhibit the hyperphosphorylation”; in data set [1] (inhibitor at 10 nM), “didn't inhibit the hyperphosphorylation”; in data set [1] (inhibitor at 20 nM) it was “the hyper-phosphorylated isoform disappeared”; in data set [1] (inhibitor at 20 nM, listed as Bis-indolyl-maleimide I), “led to the disappearance of the hyperphosphorylated isoform”.

As to `O=C1NC(=O)C(c2cn(CCCn3ccnc3)c3ccccc23)=C1Nc1ccccc1` [PKCβ-inhibitor], the “hyperphosphorylated progranulin isoform in IEF” value in data set [1] (inhibitor at 21 nM) is “led to the disappearance of the hyperphosphorylated isoform”.

For the molecule alkaline phosphatase, in data set [3], the “additional (aberrantly charged) progranulin isoform in IEF after pretreatment” value is recorded as “disappearance of the additional progranulin isoform; also recorded: had lost the aberrantly charged progranulin isoform”.

As to `CN[C@@H]1C[C@H]2O[C@@](C)([C@@H]1OC)n1c3ccccc3c3c4c(c5c6ccccc6n2c5c31)C(=O)NC4` [Staurosporin], the “electrical charge of the normal progranulin isoform in IEF” value in data set [1] (2.5 pM, LCL of progranulin-antibody positive patients and of healthy controls) is “slight shift of the band of the normal progranulin isoform towards an electronically less negatively charged isoform”; in data set [1] (5 pM, LCL of progranulin-antibody positive patients and of healthy controls), “slight shift of the band of the normal progranulin isoform towards an electronically less negatively charged isoform”; in data set [1] (2.5 μM, LCL of a healthy control), “change in the electrical charge of “normal” progranulin appeared as well”; in data set [1] (2.5 μM, LCL of a progranulin-antibody positive patient) it was “change in the electrical charge”; in data set [1] (5 μM, LCL of a healthy control), “change in the electrical charge of “normal” progranulin appeared as well”; in data set [1] (5 μM, LCL of a progranulin-antibody positive patient), “change in the electrical charge”. In addition, the “hyperphosphorylated progranulin isoform in IEF” value was “led only to the disappearance of the hyperphosphorylated progranulin isoform” in data set [1] (inhibitor at 10 nM); “wasn't detectable” in data set [1] (inhibitor at 15 nM); “wasn't detectable; also recorded: led only to the disappearance of the hyperphosphorylated progranulin isoform” in data set [1] (inhibitor at 30 nM); “disappearance of the hyperphosphorylated progranulin isoform” in data set [1] (inhibitor at 2.5 μM); “disappearance of the hyperphosphorylated progranulin isoform” in data set [1] (inhibitor at 5 μM).

Consider `C=C1[C@@H](O)[C@@H]2O[C@]3(CC[C@H](/C=C/[C@@H](C)[C@@H]4CC(C)=C[C@@]5(O[C@H](C[C@@](C)(O)C(=O)O)CC[C@H]5O)O4)O3)CC[C@H]2O[C@@H]1[C@@H](O)C[C@H](C)[C@H]1O[C@@]2(CCCCO2)CC[C@H]1C` [okadaic acid], for which the “normal and hyperphosphorylated progranulin isoforms in IEF” value in data set [4] (0.1 nM (specific for PP2A), listed as ocadaic acid) is “didn't change the phosphorylation state”; in data set [4] (10 nM (specific for PP1)), “led to the appearance of the hyperphosphorylated progranulin isoform and the disappearance of the normal progranulin isoform”; in data set [4] (10 nM (specific for PP1), listed as Ocadaic acid) it was “led to the appearance of the hyperphosphorylated progranulin isoform”; in data set [4] (500 nM (0.5 μM)) it was “led to the appearance of the hyperphosphorylated progranulin isoform and the disappearance of the normal progranulin isoform”; in data set [4] (500 nM (0.5 μM), listed as Ocadaic acid) it was “led to the appearance of the hyperphosphorylated progranulin isoform”.

B1: NIPP1: phosphatase inhibitor, at 10 pM specific for PP1 (protein, UniProt Q12972 1-351, looked up)
Nuclear inhibitor of protein …: MAAAANSGSSLPLFDCPTWAGKPPPGLHLDVVKGDKLIEKLIIDEKKYYLFGRNPDLCDFTIDHQSCSRVHAALVYHKHLKRVFLIDLNSTHGTFLGHIRLEPHKPQQIPIDSTVSFGASTRAYTLREKPQTLPSAVKGDEKMGGEDDELKGLLGLPEEETELDNLTEFNTAHNKRISTLTIEEGNLDIQRPKRKRKNSRVTFSEDDEIINPEDVDPSVGRFRNMVQTAVVPVKKKRVEGPGSLGLEESGSRRMQNFAFSGGLYGGLPPTHSEAGSQPHGIHGTALIGGLPMPYPNLAPDVDLTPVVPSAVNMNPAPNPAVYNPEAVNEPKKKKYAKEAWPGKKPTPSLLI
Consider B1, for which, in data set [4] (10 pM (specific for PP1)), the “normal and hyperphosphorylated progranulin isoforms in IEF” value is “led to the appearance of the hyperphosphorylated progranulin isoform and the disappearance of the normal progranulin isoform”.
